Laboratory results from patent US9512178B2, “Neurogenic brain-derived neurotrophic factor peptides” (Research Foundation for Mental Hygiene, Inc., priority 2012, dated 2016).

Assays:
[1] = system: E18 primary hippocampal neurons; test: Western blots of neuronal markers, densitometry; type: cell-based, mouse; conditions: 5 days
Method: (§1) Following treatment in 6-well plates, cells were washed 2× in glucose buffered saline, GBS (5.4 mM KCl, 138 mM NaCl, 22 mM glucose, and 2 mM Na—KPO pH 7.2), and then lysed by 5 min incubation on ice in 100 or 150 μl of ice-cold RIPA buffer (PBS, 1% w/v NP-40 from Fisher Scientific, 0.1% w/v SDS, and 0.5% w/v sodium desoxycholate) containing 1 mM AEBSF (Gold Biotechnology, St. Louis, Mo., USA), 10 μg/ml aprotinin (Sigma-Aldrich, St. Louis, Mo., USA), and 20 μg/ml of leupeptin and pepstatin (US Biochemicals, Cleveland, Ohio, USA), and phosphatase inhibitors: NaF, Na orthovanadate, (3-glycerophosphate, and microcystein (Sigma-Aldrich, St. Louis, Mo., USA). Extracts were prepared by collecting and pooling a minimum of 2 wells by scraping, and lysates were centrifuged at 20,000×g for 10 min at 4° C. Protein concentration of each cell lysate was determined using the BCA kit (Thermo Scientific, Rockford, Ill., USA). The lysates (7.5-20 μg total protein) were separated on 10% SDS-PAGE gels (except for BDNF where 12% gels were employed) and transferred to 0.45 μm PVDF membrane (Pall, Pensacola, Fla., USA) for probing with antibodies as noted. Blots were blocked for 1 hr at 37° C. in 1×TBST (0.05% Tween 20 in TBS) containing 5% w/v blotting grade dry milk (Bio-rad, Hercules, Calif., USA), incubated in primary antibody overnight in blocking buffer at 4° C., washed 3×10 min in TBST at room temperature, followed by incubation with secondary antibody, i.e., peroxidase-conjugated anti-mouse or anti rabbit IgG (Jackson ImmunoResearch Laboratories, West Grove, Pa., USA) diluted in blocking buffer. Blots were washed 3×10 min in TBST and immunoreactive protein bands were visualized with enhanced chemiluminescence (ECL) reagents (Pierce, Rockford, Ill., USA). The ECL films of the blots were scanned and analyzed using Multi Gauge software version 3.0 (Fujifilm, Tokyo, Japan).
(§2) The following primary antibodies were used: rabbit polyclonal anti-NFM (1:1000; Chemicon/Millipore, Billerica, Mass., USA); mouse monoclonal anti-NeuN, clone A60 (1:500; Millipore, Billerica, Mass., USA); rabbit polyclonal anti-Tuj-1, (3—III-tubulin (Covance; 1:800, Emeryville, Calif., USA); mouse monoclonal SMI 52 to the adult isoforms of MAP-2, MAP2a,b (1:1000; Covance, Emeryvilly, Calif., USA); rabbit polyclonal anti-Synapsin I (1:2000; Stressgen, Farmingdale, N.Y., USA); rabbit monoclonal anti-PSD95 (1:1000; Cell signaling, Danvers, Mass., USA); anti tau 92e (1:10000); mouse monoclonal anti-BDNF (1:1000; Calbiochem, Gibbstown, N.J., USA); rabbit polyclonal anti-TrkB (total) (1:500; Santa Cruz Biotechnology, Santa Cruz, Calif., USA); rabbit polyclonal anti-pTrkB (Tyr706) (1:400; Santa Cruz Biotechnology, Santa Cruz, Calif., USA), TrkC (1:1000; Cruz Biotechnology, Santa Cruz, Calif., USA); and pTrkY490 (1:500; Upstate USA Inc., Charlottesville, Va., USA). For loading control, the blots were developed with rabbit polyclonal antibody to GAPDH (1:2000; Santa Cruz Biotechnology, Santa Cruz, Calif., USA).
To biochemically study the effect of BDNF peptides in inducing expression of neuronal markers, protein samples were recovered from cells treated with peptides B-5, B-4, B-3, or vehicle for five days. As a positive control, protein samples were collected from cells treated with BDNF at 20 ng/ml (0.79 nM) or 100 ng/ml (3.95 nM) (FIG. 3D, E). Western blots of the cell lysates were developed with antibodies to Synapsin I (presynaptic marker), PSD95 (postsynaptic marker), NeuN (late neuronal marker), NFM (early neuronal marker), MAP2 (dendritic marker), 0-IIItubulin (early neuronal marker), and tau 92e (axonal marker).

[2] = biological target: T1, TrkB receptor (Mus musculus, UniProt P15209); test: TrkB phosphorylation (Tyr 706) and TrkB level in primary E18 hippocampal cells, with or without K252a; type: cell-based; conditions: 1 μM; for increase in the phosphorylation of the TrkB receptor: 5 min, without K252a; for TrkB levels / activation of TrkB (pTrkB Tyr 706 normalized to total TrkB): 1 h
T1 construct: endogenous in cells; host or cells: primary hippocampal neurons from embryonic day 18 C57BL/6 mice
Method: Peptides were dissolved in water in serial dilutions of 10 mM, 1 mM, 100 μM and 10 μM from which the necessary amount was added directly to the culture medium to a final concentration of 0.05 μM, 1 μM, or 10 μM. The BDNF (Peprotech, NJ, USA) was used as a reference in concentrations of 20 ng/ml (0.79 nM) and 100 ng/ml (3.95 nM). Cycloheximide (CHX) (Sigma-Aldrich, St Louis, Mo., USA) was used for blocking protein synthesis. CHX original stock was 100 mg/ml (355.4 mM) in DMSO; from a second stock of 35.54 mM in DMSO, the dilutions were made to the final concentrations of 100 μM. The K252a (CALBIOCHEM/EMD) was used to inhibit the TrkB Receptor. From a stock of 100 μM in DMSO, K252a was diluted to a final working concentration of 200 nM. The E18 primary hippocampal cells were pre-treated with CHX or K252a 1 h prior to the addition of the peptides or BDNF and a time course of these treatments for 15 min, 60 min and 2 days was studied.
as §1
as §2, with “Calif., USA). […]” for “Calif., USA).”

T1 sequence (P15209 32-821): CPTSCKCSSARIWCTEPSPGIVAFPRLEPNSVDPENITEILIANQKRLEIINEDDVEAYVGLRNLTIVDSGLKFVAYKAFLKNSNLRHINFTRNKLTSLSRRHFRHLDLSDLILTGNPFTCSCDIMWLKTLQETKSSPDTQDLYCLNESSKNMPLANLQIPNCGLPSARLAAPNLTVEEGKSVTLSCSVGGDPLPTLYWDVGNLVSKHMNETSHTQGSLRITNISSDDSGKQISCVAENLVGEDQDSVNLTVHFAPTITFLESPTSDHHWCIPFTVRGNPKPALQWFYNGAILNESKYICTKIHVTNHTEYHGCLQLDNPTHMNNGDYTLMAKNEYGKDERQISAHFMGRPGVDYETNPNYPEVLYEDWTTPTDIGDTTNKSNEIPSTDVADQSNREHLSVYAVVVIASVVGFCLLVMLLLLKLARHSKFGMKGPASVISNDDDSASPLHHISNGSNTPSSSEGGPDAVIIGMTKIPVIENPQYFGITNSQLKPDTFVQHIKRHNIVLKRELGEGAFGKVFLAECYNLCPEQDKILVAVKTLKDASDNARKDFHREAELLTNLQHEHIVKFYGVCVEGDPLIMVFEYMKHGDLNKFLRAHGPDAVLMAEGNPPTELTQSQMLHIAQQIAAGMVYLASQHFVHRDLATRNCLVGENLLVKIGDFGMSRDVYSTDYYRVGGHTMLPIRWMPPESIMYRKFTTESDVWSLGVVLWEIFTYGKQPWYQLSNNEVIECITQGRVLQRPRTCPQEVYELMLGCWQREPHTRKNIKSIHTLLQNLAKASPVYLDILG

Row | Substance | MAP2 expression (Western blot) ([1]; 0.1 μM) | NFM expression (Western blot) ([1]; 0.1 μM) | expression of NeuN (Western blot) ([1]; 1 μM) | expression of PSD95 (Western blot) ([1]; 1 μM) | levels of 0-IIItubulin (Western blot) ([1]; 1 μM, vs vehicle) | level of tau (92e antibody, Western blot) [1] | increase in the phosphorylation of the TrkB receptor [2] | TrkB levels [2] | activation of TrkB (pTrkB Tyr 706 normalized to total TrkB) [2] | expression of NeuN (Western blot) ([1]; 0.1 μM)
1 | Ac-I-K-R-G-CONH2 [Peptide B-5] | increased significantly | increased NFM expression | increased the expression of NeuN | significant increment | this increase was not significant | Neither BNDF nor peptides B-3, B-4 or B-5 had any significant effect | significant | increased | relatively weak activation | –
2 | Ac-S-KKR-CONH2 [Peptide B-3] | – | – | increased the expression of NeuN | – | – | Neither BNDF nor peptides B-3, B-4 or B-5 had any significant effect | significant | increased | relatively weak activation | increased the expression of NeuN
